Measured values published in US20160030391A1, “METHODS AND COMPOSITIONS FOR IMPROVING COGNITIVE FUNCTION” (THE JOHNS HOPKINS UNIVERSITY, priority 2013, published 2016).

Legend:
Assay type in all cases: in vivo, human
[1] = tested on: entorhinal cortex of aMCI subjects; test: fMRI activity in entorhinal cortex during lure stimuli correctly identified as similar; conditions: levetiracetam 125 mg twice a day for two weeks vs placebo
Excerpt: As described above, the drug treatment period is the two weeks preceding Visit 1 or 2 (with the two week period preceding the other Visit being the placebo phase). […] Imaging data are obtained through high-resolution methods developed in the Stark laboratory. Data are collected on a Phillips 3 Tesla scanner (Eindhoven, The Netherlands) equipped with an 8-channel SENSE (Sensitivity Encoding) head coil, located at the F.M. Kirby Research Center for Functional Brain Imaging at the Kennedy Krieger Institute (Baltimore, Md.). High-resolution echo-planar images are collected using an acquisition matrix of 64×64, a repetition time of 1500 milliseconds, an echo time of 30 milliseconds, a […] of 70 degrees, a SENSE factor of 2, and an isotropic resolution of 1.5 mm×1.5 mm x 1.5 mm with no gap. Nineteen oblique slices are acquired parallel to the principal longitudinal axis of the hippocampus and covered the entire medial temporal lobe region bilaterally. […] Group data are analyzed using a two-way Analysis of Variance (ANOVA) with trial types and group as fixed factors, and subject as a random factor nested within group. […] The activity of the subject's medial temporal lobe is measured by functional MRI during the subject's participation in an explicit 3-alternative forced choice task, where participants view novel, repeated and similar (“lure”) stimuli. […]

aMCI subjects [2] = test: Buschke Selective Reminding Test - Delayed Recall; conditions: levetiracetam 125 mg twice a day for two weeks
aMCI subjects [3] = test: explicit 3-alternative forced choice task
Excerpt: See Folstein et al., J Psychiatric Res 12: 189-98, (1975); Robbins et al., Dementia 5: 266-81, (1994); Rey, L′examen clinique en psychologie, (1964); Kluger et al., J Geriatr Psychiatry Neurol 12:168-79, (1999); Marquis et al., 2002 and Masur et al., 1994. Also see Buchanan, R. W., Keefe, R. S. E., Umbricht, D., Green, M. F., Laughren, T., and Marder, S. R. (2011) The FDA-NIMH-MATRICS guidelines for clinical trial design of cognitive-enhancing drugs: what do we know 5 years later? Schizophr. Bull. 37, 1209-1217. Another example of a cognitive test in humans is the explicit 3-alternative forced choice task. In this test, subjects are presented with color photographs of common objects consisting of a mix of three types of image pairs: similar pairs, identical pairs and unrelated foils. The second of the pair of similar objects is referred to as the “lure”. These image pairs are fully randomized and presented individually as a series of images. Subjects are instructed to make a judgment as to whether the objects seen are new, old or similar. A “similar” response to the presentation of a lure stimulus indicates successful memory retrieval by the subject.
The activity of the subject's medial temporal lobe is measured by functional MRI during the subject's participation in an explicit 3-alternative forced choice task, where participants view novel, repeated and similar (“lure”) stimuli. The Psychophysics Toolbox extensions in Matlab 7.0 (The MathWorks, Natick, Mass.) is used for stimulus presentation and behavioral data collection. Stimuli are color photographs of common objects. Each participant undergoes a series of testing runs during the functional imaging sessions, each run consisting of a mix of three types of image pairs: similar pairs, identical pairs and unrelated foils. These image pairs are fully randomized throughout the run and presented individually as a series of images (see FIG. 10A). Participants are instructed to make a judgment as to whether each object seen is new, old or similar. […]

Question: Which “EC activity during memory judgments (fMRI)” value [1] does the source give for `CC[C@@H](C(N)=O)N1CCCC1=O` [levetiracetam, (2S)-2-(2-oxopyrrolidin-1-yl)butanamide] here?
Answer: The value was “increases EC activity”.

Question: What about the “performance in Buschke Selective Reminding Test—Delayed Recall” value (aMCI subjects [2]) of the same compound?
Answer: Its value is “fail to rescue performance”.

Question: And the “performance in the explicit 3-alternative forced choice task” value (aMCI subjects [3]; levetiracetam 62.5 mg BID for two weeks)?
Answer: The value was “improves significantly”.

Question: And the “performance in the explicit 3-alternative forced choice task” value (aMCI subjects [3]; levetiracetam 125 mg twice a day for two weeks vs placebo)?
Answer: The value was “improves significantly”.

Question: And the “performance in the explicit 3-alternative forced choice task” value (aMCI subjects [3]; levetiracetam 250 mg BID for two weeks)?
Answer: Its value is “does not significantly improve”.
